For assay [1], the target named is T1, BRG-1 (Homo sapiens, UniProt P51532).
T1 construct: made in house; host or cells: High Five insect cells
Put plainly: ATPase catalytic activity of BRG-1, ADP-Glo in vitro biochemical assay. To be noted: 30 nM BRG-1, 400 μM ATP, read-out: BRG1 IP50. (ADP-Glo turns the ADP formed in a reaction into a luminescent signal.)

The target of assay [2] is T2, BRM (Homo sapiens, UniProt P51531).
T2 construct: made in house; host or cells: High Five insect cells
Put plainly: ATPase catalytic activity of BRM, ADP-Glo in vitro biochemical assay. As to conditions: 30 nM BRM, 400 μM ATP, read-out: BRM IP50.

Like-named read-outs stand apart in the source and are kept apart here.

T2 sequence (P51531 whole entry): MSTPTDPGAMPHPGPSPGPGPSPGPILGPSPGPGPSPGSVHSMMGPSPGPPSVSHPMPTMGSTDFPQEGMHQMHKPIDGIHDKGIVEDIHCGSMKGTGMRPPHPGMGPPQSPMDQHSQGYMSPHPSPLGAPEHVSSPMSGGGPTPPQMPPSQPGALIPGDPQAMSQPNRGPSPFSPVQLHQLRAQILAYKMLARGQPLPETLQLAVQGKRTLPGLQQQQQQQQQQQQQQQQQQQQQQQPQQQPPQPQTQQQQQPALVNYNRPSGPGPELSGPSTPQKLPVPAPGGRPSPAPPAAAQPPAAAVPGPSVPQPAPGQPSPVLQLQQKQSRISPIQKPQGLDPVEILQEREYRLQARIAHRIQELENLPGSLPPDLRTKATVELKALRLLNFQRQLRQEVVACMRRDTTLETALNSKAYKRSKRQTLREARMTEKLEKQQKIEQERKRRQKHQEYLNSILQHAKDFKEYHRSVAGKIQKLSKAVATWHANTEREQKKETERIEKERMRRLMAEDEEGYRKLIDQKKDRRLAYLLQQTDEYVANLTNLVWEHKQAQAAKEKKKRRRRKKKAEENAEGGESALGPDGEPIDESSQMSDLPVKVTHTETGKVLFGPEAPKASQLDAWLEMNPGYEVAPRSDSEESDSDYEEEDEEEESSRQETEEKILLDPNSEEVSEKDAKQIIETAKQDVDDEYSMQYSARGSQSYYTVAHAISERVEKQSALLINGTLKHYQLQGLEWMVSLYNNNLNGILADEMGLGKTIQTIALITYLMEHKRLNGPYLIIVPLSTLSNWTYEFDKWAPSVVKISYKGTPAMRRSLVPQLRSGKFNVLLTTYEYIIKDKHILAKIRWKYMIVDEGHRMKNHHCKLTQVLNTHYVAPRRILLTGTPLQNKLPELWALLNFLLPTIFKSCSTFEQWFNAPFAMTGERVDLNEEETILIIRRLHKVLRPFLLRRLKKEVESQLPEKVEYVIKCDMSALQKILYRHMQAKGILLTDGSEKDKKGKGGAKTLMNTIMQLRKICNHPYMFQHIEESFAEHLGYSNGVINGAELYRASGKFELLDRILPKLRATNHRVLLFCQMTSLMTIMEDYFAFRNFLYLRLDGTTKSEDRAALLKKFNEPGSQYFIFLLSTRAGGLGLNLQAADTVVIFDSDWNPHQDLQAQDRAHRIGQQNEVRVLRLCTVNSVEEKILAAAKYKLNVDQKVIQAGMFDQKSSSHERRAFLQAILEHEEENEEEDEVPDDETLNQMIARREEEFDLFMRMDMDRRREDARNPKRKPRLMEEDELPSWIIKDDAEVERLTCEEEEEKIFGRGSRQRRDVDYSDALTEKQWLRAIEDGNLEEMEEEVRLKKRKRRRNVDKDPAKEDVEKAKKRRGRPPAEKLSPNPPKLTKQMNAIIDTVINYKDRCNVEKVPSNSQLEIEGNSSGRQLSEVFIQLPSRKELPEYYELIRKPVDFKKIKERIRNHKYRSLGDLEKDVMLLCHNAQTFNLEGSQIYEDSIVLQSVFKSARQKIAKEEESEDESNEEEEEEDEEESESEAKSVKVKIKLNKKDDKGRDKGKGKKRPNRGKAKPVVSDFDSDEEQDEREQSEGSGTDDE
T1 sequence (P51532 whole entry): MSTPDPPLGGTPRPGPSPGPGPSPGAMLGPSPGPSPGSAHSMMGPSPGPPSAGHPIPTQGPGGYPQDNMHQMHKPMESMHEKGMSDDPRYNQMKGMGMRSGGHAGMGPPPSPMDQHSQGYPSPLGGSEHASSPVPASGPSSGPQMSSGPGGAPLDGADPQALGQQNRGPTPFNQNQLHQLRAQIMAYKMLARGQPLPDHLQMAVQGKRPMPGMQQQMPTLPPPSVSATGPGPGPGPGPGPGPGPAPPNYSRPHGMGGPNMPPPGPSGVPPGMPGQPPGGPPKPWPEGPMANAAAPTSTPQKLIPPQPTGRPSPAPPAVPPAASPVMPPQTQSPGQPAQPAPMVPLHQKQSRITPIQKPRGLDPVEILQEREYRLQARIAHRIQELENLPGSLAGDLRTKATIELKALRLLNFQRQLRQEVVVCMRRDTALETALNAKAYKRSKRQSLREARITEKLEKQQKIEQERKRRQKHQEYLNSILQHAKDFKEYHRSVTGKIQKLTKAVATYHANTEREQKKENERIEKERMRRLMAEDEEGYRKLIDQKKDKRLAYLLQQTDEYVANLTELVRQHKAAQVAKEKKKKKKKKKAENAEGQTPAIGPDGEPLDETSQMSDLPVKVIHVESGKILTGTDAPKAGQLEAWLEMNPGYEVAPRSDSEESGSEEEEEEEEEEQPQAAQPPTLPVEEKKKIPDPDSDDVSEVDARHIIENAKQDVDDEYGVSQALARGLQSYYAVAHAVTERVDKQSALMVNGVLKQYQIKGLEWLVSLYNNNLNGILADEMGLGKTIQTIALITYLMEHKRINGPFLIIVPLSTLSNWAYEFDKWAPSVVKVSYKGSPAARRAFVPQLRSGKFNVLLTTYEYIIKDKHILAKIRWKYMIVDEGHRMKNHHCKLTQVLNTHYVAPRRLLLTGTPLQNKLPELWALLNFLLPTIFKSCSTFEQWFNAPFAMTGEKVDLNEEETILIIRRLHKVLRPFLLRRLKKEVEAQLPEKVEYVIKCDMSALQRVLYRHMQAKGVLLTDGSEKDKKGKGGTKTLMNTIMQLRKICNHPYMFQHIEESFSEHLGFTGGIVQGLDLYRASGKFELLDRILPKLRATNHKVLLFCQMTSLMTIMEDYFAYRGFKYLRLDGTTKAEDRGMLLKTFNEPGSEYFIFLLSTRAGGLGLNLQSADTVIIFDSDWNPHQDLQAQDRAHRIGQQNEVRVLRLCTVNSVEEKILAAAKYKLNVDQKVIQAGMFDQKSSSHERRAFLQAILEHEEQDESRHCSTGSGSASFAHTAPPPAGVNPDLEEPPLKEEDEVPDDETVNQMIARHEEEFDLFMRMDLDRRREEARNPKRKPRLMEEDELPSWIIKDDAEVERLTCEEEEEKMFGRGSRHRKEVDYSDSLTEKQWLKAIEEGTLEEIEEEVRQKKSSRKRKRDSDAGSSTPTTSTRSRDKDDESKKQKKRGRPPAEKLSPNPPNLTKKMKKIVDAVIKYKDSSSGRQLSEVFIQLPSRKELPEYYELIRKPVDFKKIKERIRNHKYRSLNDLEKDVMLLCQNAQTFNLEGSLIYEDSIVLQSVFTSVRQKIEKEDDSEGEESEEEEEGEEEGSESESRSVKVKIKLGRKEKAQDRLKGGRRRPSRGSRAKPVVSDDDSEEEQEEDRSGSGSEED

Consider `CCCOC(=O)N1CCC(c2csc(NC(=O)CNC(=O)c3ccn(S(C)(=O)=O)c3)n2)CC1` [Compound 765, propyl 4-[2-[[2-[(1-methylsulfonylpyrrole-3-carbonyl)amino]acetyl]amino]thiazol-4-yl]piperidine-1-carboxylate], for which the IC50 was more than 100 nM in assay [1] (ATPase catalytic activity) and more than 10 nM in assay [2] (ATPase catalytic activity).
Regarding `CS(=O)(=O)n1ccc(C(=O)NCC(=O)Nc2nc(-c3cccc(N4CC[C@@H]5OCC[C@H]5C4)n3)cs2)c1` [Compound 766], the IC50 in assay [1] (ATPase catalytic activity) and in assay [2] (ATPase catalytic activity) was less than 10 nM each time.
Take `C[C@@H]1CN(c2cccc(-c3csc(NC(=O)[C@H](C)NC(=O)c4ccn(S(C)(=O)=O)c4)n3)n2)C[C@H](C)O1` [Compound 767]: the IC50 in assay [1] (ATPase catalytic activity) is more than 10 nM; in assay [2] (ATPase catalytic activity), less than 10 nM.
On to `C[C@@H]1CN(c2cccc(-c3csc(NC(=O)[C@@H](C)NC(=O)c4ccn(S(C)(=O)=O)c4)n3)n2)C[C@H](C)O1` [Compound 768], for which the IC50 in assay [1] (ATPase catalytic activity) and in assay [2] (ATPase catalytic activity) was more than 100 nM throughout.
In the case of `C[C@@H]1CN(c2cccc(-c3csc(NC(=O)[C@H](C)NC(=O)c4ccn(C(C)(C)C)c4)n3)n2)C[C@H](C)O1` [Compound 769], the IC50 in assay [1] (ATPase catalytic activity) and in assay [2] (ATPase catalytic activity) was more than 10 nM each time.
In the case of `CCCOC(=O)N1CCC[C@H](c2csc(NC(=O)CNC(=O)c3ccn(S(C)(=O)=O)c3)n2)C1` [Compound 771], the IC50 in assay [1] (ATPase catalytic activity) and in assay [2] (ATPase catalytic activity) was more than 10 nM throughout.
`COC[C@H](NC(=O)c1ccn(S(C)(=O)=O)c1)C(=O)Nc1nc(-c2cccc(N3CC[C@H]4COC[C@@H]4C3)n2)cs1` [Compound 772]: the IC50 in assay [1] (ATPase catalytic activity) and in assay [2] (ATPase catalytic activity) was less than 10 nM throughout.
As to `COC[C@H](NC(=O)c1ccn(S(C)(=O)=O)c1)C(=O)Nc1nc(-c2cccc(N3CC[C@@H]4COC[C@H]4C3)n2)cs1` [Compound 773], the IC50 in assay [1] (ATPase catalytic activity) and in assay [2] (ATPase catalytic activity) was less than 10 nM throughout.
As for `COC[C@H](NC(=O)c1ccn(S(C)(=O)=O)c1)C(=O)Nc1nc(-c2cccc(N3CC[C@H]4OCC[C@@H]4C3)n2)cs1` [Compound 774], the IC50 in assay [1] (ATPase catalytic activity) and in assay [2] (ATPase catalytic activity) was less than 10 nM throughout.
For `COC[C@H](NC(=O)c1ccn(S(C)(=O)=O)c1)C(=O)Nc1nc(-c2cccc(N3CC[C@@H]4OCC[C@H]4C3)n2)cs1` [Compound 775], the values for the IC50 in assay [1] (ATPase catalytic activity) and in assay [2] (ATPase catalytic activity) were more than 10 nM and less than 10 nM, respectively.
With `CS(=O)(=O)n1ccc(C(=O)NCC(=O)Nc2nc(-c3cccc(C4CCCOC4)c3)cs2)c1` (stereo not shown) [Compound 776, 1-methylsulfonyl-N-[2-oxo-2-[[4-(3-tetrahydropyran-3-ylphenyl)thiazol-2-yl]amino]ethyl]pyrrole-3-carboxamide], the IC50 in assay [1] (ATPase catalytic activity) and in assay [2] (ATPase catalytic activity) was more than 10 nM each time.
As to `C[C@@H]1CN(c2cccc(-c3csc(NC(=O)CNC(=O)c4ccn(C(C)(C)C)n4)n3)c2)C[C@H](C)O1` [Compound 777], the IC50 in assay [1] (ATPase catalytic activity) and in assay [2] (ATPase catalytic activity) was more than 10 nM each time.
As to `C[C@@H]1CN(c2cccc(-c3csc(NC(=O)CNC(=O)c4cn(C(C)(C)CO)cn4)n3)n2)C[C@H](C)O1` [Compound 778], the IC50 in assay [1] (ATPase catalytic activity) is more than 100 nM; in assay [2] (ATPase catalytic activity), more than 10 nM.
For the compound `Cn1ccc(-c2cccc(-c3csc(NC(=O)CNC(=O)c4cn(C5(C#N)CC5)cn4)n3)c2)n1` [Compound 780], the IC50 in assay [1] (ATPase catalytic activity) and in assay [2] (ATPase catalytic activity) was more than 100 nM in each case.
For `C[C@@H]1CN(c2cccc(-c3csc(NC(=O)CNC(=O)c4cn(C5(C#N)CC5)cn4)n3)n2)C[C@H](C)O1` [Compound 781], the figures for the IC50 in assay [1] (ATPase catalytic activity) and in assay [2] (ATPase catalytic activity) were more than 100 nM and more than 10 nM, respectively.
Regarding `Cn1ccc2ccc(-c3csc(NC(=O)CNC(=O)c4ncn(C56CC(C5)C6)n4)n3)cc2c1=O` [Compound 782], the IC50 in assay [1] (ATPase catalytic activity) and in assay [2] (ATPase catalytic activity) was more than 100 nM each time.
In the case of `CN1CCOc2ccc(-c3csc(NC(=O)CNC(=O)c4cn(C(C)(C)C#N)cn4)n3)cc21` [Compound 784], the IC50 in assay [1] (ATPase catalytic activity) and in assay [2] (ATPase catalytic activity) was more than 10 nM throughout.
Take `CC(C)(C#N)n1cnc(C(=O)NCC(=O)Nc2nc(-c3cc(F)c4c(c3)OCC4)cs2)c1` [Compound 785]: the IC50 in assay [1] (ATPase catalytic activity) and in assay [2] (ATPase catalytic activity) was more than 10 nM in each case.
Regarding `C[C@@H]1CN(c2cccc(-c3csc(NC(=O)CNC(=O)c4ccn(C(C)(C)C#N)n4)n3)n2)C[C@H](C)O1` [Compound 786], the values for the IC50 in assay [1] and in assay [2] were more than 10 nM and less than 10 nM, respectively.
As to `CN1CCOc2ccc(-c3csc(NC(=O)CNC(=O)c4ccn(C(C)(C)C#N)n4)n3)cc21` [Compound 787], the IC50 in assay [1] and in assay [2] was more than 10 nM throughout.
On to `N#CC1(n2cnc(C(=O)NCC(=O)Nc3nc(-c4cc(F)c5c(c4)OCC5)cs3)c2)CC1` [Compound 788], for which the IC50 in assay [1] and in assay [2] was more than 100 nM in each case.
Consider `Cn1ccc(-c2cccc(-c3csc(NC(=O)CNC(=O)c4ccn(C(C)(C)C#N)n4)n3)c2)n1` [Compound 790], for which the IC50 in assay [1] and in assay [2] was more than 10 nM throughout.
Regarding `CC(C)(C#N)n1ccc(C(=O)NCC(=O)Nc2nc(-c3cc(F)c4c(c3)OCC4)cs2)n1` [Compound 791], the IC50 in assay [1] and in assay [2] was more than 10 nM throughout.
In the case of `C[C@H](NC(=O)c1ccn(C(C)(C)C)n1)C(=O)Nc1nc(-c2ccc3ccn(C)c(=O)c3c2)cs1` [Compound 792], the IC50 in assay [1] and in assay [2] was more than 100 nM throughout.
`Cn1ccc2ccc(-c3csc(NC(=O)CNC(=O)c4ccn(C5(C#N)CC5)n4)n3)cc2c1=O` [Compound 793]: the IC50 in assay [1] and in assay [2] was more than 10 nM throughout.
In the case of `N#CC1(n2ccc(C(=O)NCC(=O)Nc3nc(-c4cccc(OC(F)(F)F)c4)cs3)n2)CC1` [Compound 794], the IC50 in assay [1] and in assay [2] was more than 100 nM in each case.
Turning to `C[C@@H]1CN(c2cccc(-c3csc(NC(=O)[C@H](C)NC(=O)c4ccn(C5(C#N)CC5)n4)n3)n2)C[C@H](C)O1` [Compound 795], the values for the IC50 in assay [1] and in assay [2] were more than 100 nM and more than 10 nM, respectively.
Regarding `N#CC1(n2ccc(C(=O)NCC(=O)Nc3nc(-c4cc(F)cc(OC5CC5)c4)cs3)n2)CC1` [Compound 796], the IC50 in assay [1] and in assay [2] was more than 100 nM each time.
For the compound `C[C@@H]1CN(c2cccc(-c3csc(NC(=O)[C@H](C)NC(=O)c4cn(C5(C)COC5)cn4)n3)n2)C[C@H](C)O1` [Compound 797], the IC50 in assay [1] and in assay [2] was more than 100 nM in each case.
For the compound `Cn1ccc(-c2cccc(-c3csc(NC(=O)CNC(=O)c4ccn(C5(C)COC5)n4)n3)c2)n1` [Compound 798], the IC50 in assay [1] and in assay [2] was more than 100 nM each time.
As for `C[C@H](NC(=O)c1cn(C2(C)COC2)cn1)C(=O)Nc1nc(-c2ccc3ccn(C)c(=O)c3c2)cs1` [Compound 801], the IC50 in assay [1] and in assay [2] was more than 100 nM in each case.
For `COC[C@H](NC(=O)c1cn(C(C)(C)C#N)cn1)C(=O)Nc1nc(-c2ccc3ccn(C)c(=O)c3c2)cs1` [Compound 802], the IC50 in assay [1] and in assay [2] was more than 10 nM in each case.
As for `N#CC1(n2ccc(C(=O)NCC(=O)Nc3nc(-c4cc(F)c5c(c4)OCC5)cs3)n2)CC1` [Compound 803], the IC50 in assay [1] is more than 100 nM; in assay [2], more than 10 nM.
The matching figures for `COC[C@H](NC(=O)c1cn(C2(C)COC2)cn1)C(=O)Nc1nc(-c2ccc3ccn(C)c(=O)c3c2)cs1` [Compound 804]: more than 100 nM and more than 100 nM.
For `C[C@H](NC(=O)c1ccn(C2(C#N)CC2)n1)C(=O)Nc1nc(-c2ccc3ccn(C)c(=O)c3c2)cs1` [Compound 805], the IC50 in assay [1] and in assay [2] was more than 100 nM in each case.
Take `C[C@@H]1CN(c2cccc(-c3csc(NC(=O)CNC(=O)c4ccn(C5(C#N)CC5)n4)n3)n2)C[C@H](C)O1` [Compound 806]: the IC50 in assay [1] and in assay [2] was more than 10 nM throughout.
Turning to `CN1CCOc2ccc(-c3csc(NC(=O)CNC(=O)c4ccn(C5(C#N)CC5)n4)n3)cc21` [Compound 811], the IC50 was more than 100 nM in assay [1] and more than 10 nM in assay [2].
`COC[C@H](NC(=O)c1ccn(C2(C#N)CC2)n1)C(=O)Nc1nc(-c2ccc3ccn(C)c(=O)c3c2)cs1` [Compound 812]: the IC50 in assay [1] and in assay [2] was more than 100 nM each time.
For the compound `Cn1ccc(-c2cccc(-c3csc(NC(=O)CNC(=O)c4ccn(C5(C#N)CC5)n4)n3)c2)n1` [Compound 813], the IC50 in assay [1] is more than 100 nM; in assay [2], more than 10 nM.
Turning to `N#CC1(n2ccc(C(=O)NCC(=O)Nc3nc(-c4cccc(N5CCC5)c4)cs3)n2)CC1` [Compound 814], the IC50 in assay [1] was more than 100 nM; in assay [2], more than 10 nM.
Consider `COC[C@H](NC(=O)c1ccn(C2(C#N)CC2)n1)C(=O)Nc1nc(-c2cccc(-c3ccn(C)n3)c2)cs1` [Compound 815], for which the IC50 in assay [1] and in assay [2] was more than 100 nM throughout.
On to `COC[C@H](NC(=O)c1ccn(C(C)(C)C#N)n1)C(=O)Nc1nc(-c2ccc3ccn(C)c(=O)c3c2)cs1` [Compound 816], for which the IC50 in assay [1] and in assay [2] was more than 10 nM each time.
Take `COC[C@H](NC(=O)c1ccn(C(C)(C)C#N)n1)C(=O)Nc1nc(-c2cc(C)cc(N3C[C@@H](C)O[C@@H](C)C3)n2)cs1` [Compound 817]: the IC50 in assay [1] and in assay [2] was more than 10 nM each time.
`COC[C@H](NC(=O)c1cn(C(C)(C)C#N)cn1)C(=O)Nc1nc(-c2cc(C)cc(N3C[C@@H](C)O[C@@H](C)C3)n2)cs1` [Compound 818]: the IC50 in assay [1] and in assay [2] was more than 10 nM in each case.
For `C[C@@H]1CN(c2cccc(-c3csc(NC(=O)CNC(=O)c4cn(C(C)(C)C#N)cn4)n3)n2)C[C@H](C)O1` [Compound 819], the IC50 in assay [1] and in assay [2] was more than 10 nM in each case.
For the compound `CC(C)(C)c1cnc(C(=O)NCC(=O)Nc2nc(-c3cccc(N4CCC4)c3)cs2)s1` [Compound 820], the IC50 in assay [1] and in assay [2] was more than 100 nM each time.
Turning to `COC[C@H](NC(=O)c1ncc(C(C)(C)C)o1)C(=O)Nc1nc(-c2cccc(-c3cnn(C)n3)c2)cs1` [Compound 821], the IC50 in assay [1] and in assay [2] was more than 10 nM each time.

The values are drawn from patent publication US20230079819A1, “COMPOUNDS AND USES THEREOF” (Foghorn Therapeutics Inc., priority 2019, published 2023).
